Data taken from ChEMBL document CHEMBL2086332, “Identification of a selective small molecule inhibitor of breast cancer stem cells” (Bioorg Med Chem Lett, 2012).
Converted amounts (≈) assume the structure as drawn. The source made the active and inactive calls. The rule behind the calls is not given here.

Columns and labels:
[1] = species: Homo sapiens; assay: Growth inhibition of human breast cancer stem cells at 20 uM; format: functional
[2] = Growth inhibition of human mammary epithelial cells at 20 uM; format: cell-based; details: epithelial cell
[3] = Growth inhibition of human breast cancer stem cells; format: functional
[4] = Growth inhibition of human mammary epithelial cells; format: cell-based; details: Epithelial cell
[5] = Solubility in phosphate buffered saline at 100 microM with 1% DMSO at pH 7.4 at 23 degC by UPLC-MS method; format: physicochemical
[6] = Stability in human plasma assessed as compound remaining measured after 5 hrs by UPLC-MS method; format: ADME, cell-free; details: read-out: Stability
[7] = Stability in presence of glutathione containing medium assessed as compound remaining measured after 48 hrs by UPLC-MS method; format: physicochemical; details: read-out: Stability
[8] = Stability in phosphate buffered saline with 0.1% DMSO assessed as compound remaining measured after 48 hrs by UPLC-MS method; format: physicochemical; details: read-out: Stability
[9] = Protein binding in human plasma incubated for 48 hrs by UPLC-MS method; format: ADME, cell-free; details: read-out: PPB (converted)

## O=C(COc1ccc(Cl)cc1Cl)N/N=C/c1cccs1
[1]
  growth inhibition (GI): inactive
[2]
  growth inhibition (GI): Non-toxic

## O=C(COc1cc(Cl)ccc1Cl)N/N=C/c1ccc[nH]1
[3]
  EC50: 3.39 µM
[2]
  growth inhibition (GI): Non-toxic

## O=C(N/N=C/c1ccc[nH]1)C1COc2cc3ccccc3cc2O1 (stereo not drawn)
[4]
  EC50: 18.9 µM
[3]
  EC50: 4.21 µM

## O=C(N/N=C/c1ccc[nH]1)C1Cc2ccccc2O1 (stereo not drawn)
[1]
  growth inhibition (GI): inactive
[2]
  growth inhibition (GI): Non-toxic

## O=C(COc1ccc(Cl)cc1Cl)N/N=C/c1ccccn1
[1]
  growth inhibition (GI): inactive
[2]
  growth inhibition (GI): Non-toxic

## O=C(COc1ccc(Cl)cc1Cl)N/N=C/c1ccccc1O
[4]
  EC50: 56.3 µM
[3]
  EC50: 79.5 µM

## Cc1ccccc1OCC(=O)N/N=C/c1ccc[nH]1
[3]
  EC50: 40.7 µM
[2]
  growth inhibition (GI): Non-toxic

## O=C(COc1ccc(Cl)cc1Cl)N/N=C/c1c[nH]cn1
[1]
  growth inhibition (GI): inactive
[2]
  growth inhibition (GI): Non-toxic

## Cc1cc(Br)ccc1OCC(=O)N/N=C/c1ccc[nH]1
[3]
  EC50: 3.76 µM
[2]
  growth inhibition (GI): Non-toxic

## Cc1ccccc1NCC(=O)N/N=C/c1ccc[nH]1
[1]
  growth inhibition (GI): inactive
[2]
  growth inhibition (GI): Non-toxic

## O=C(COc1ccc(Cl)cc1Br)N/N=C/c1ccc[nH]1
[4]
  EC50: 20.9 µM
[3]
  EC50: 3.16 µM

## Cc1cc(Cl)ccc1OCC(=O)N/N=C/c1ccc[nH]1
[4]
  EC50: 26.7 µM
[3]
  EC50: 2.89 µM

## C/C(=N\NC(=O)COc1ccc(Cl)cc1Cl)c1ccc[nH]1
[1]
  growth inhibition (GI): inactive
[2]
  growth inhibition (GI): Non-toxic

## O=C(COc1ccc(Cl)cc1Cl)N/N=C/c1cc2ccccc2[nH]1
[4]
  EC50: 23.5 µM
[3]
  EC50: 125 µM

## COc1ccccc1OCC(=O)N/N=C/c1ccc[nH]1
[1]
  growth inhibition (GI): inactive
[2]
  growth inhibition (GI): Non-toxic

## O=C(COc1ccc2ccccc2c1Br)N/N=C/c1ccc[nH]1
[4]
  EC50: 3.03 µM
[3]
  EC50: 1.11 µM

## O=C(COc1ccc(F)cc1Cl)N/N=C/c1ccc[nH]1
[4]
  EC50: 33.6 µM
[3]
  EC50: 8.86 µM

## N#Cc1ccccc1OCC(=O)N/N=C/c1ccc[nH]1
[1]
  growth inhibition (GI): inactive
[2]
  growth inhibition (GI): Non-toxic

## O=C(N/N=C/c1ccc[nH]1)C1CC1c1ccc(Cl)cc1Cl (stereo not drawn)
[3]
  EC50: 59.1 µM
[2]
  growth inhibition (GI): Non-toxic

## O=C(COc1ccc(Cl)cc1Cl)N/N=C/c1ccco1
[1]
  growth inhibition (GI): inactive
[2]
  growth inhibition (GI): Non-toxic

## O=C(COc1ccc(Cl)cc1)N/N=C/c1ccc[nH]1
[3]
  EC50: 22.5 µM
[2]
  growth inhibition (GI): Non-toxic

## CC(Oc1cc(Cl)ccc1Cl)C(=O)N/N=C/c1ccc[nH]1 (stereo not drawn)
[4]
  EC50: 97.7 µM
[3]
  EC50: 33.4 µM

## O=C(N/N=C/c1ccc[nH]1)c1cc2ccccc2o1
[3]
  EC50: 6.32 µM
[2]
  growth inhibition (GI): Non-toxic

## O=C(COc1c(Cl)cccc1Cl)N/N=C/c1ccc[nH]1
[3]
  EC50: 126 µM
[2]
  growth inhibition (GI): Non-toxic

## O=C(COc1ccc(Cl)cc1Cl)N/N=C/c1cc[nH]n1
[1]
  growth inhibition (GI): inactive
[2]
  growth inhibition (GI): Non-toxic

## Cc1cc(C)c(OCC(=O)N/N=C/c2ccc[nH]2)c(C)c1
[3]
  EC50: 9.42 µM
[2]
  growth inhibition (GI): Non-toxic

## O=C(COc1ccc(Cl)cc1Cl)N/N=C/c1ccc[nH]1
[3]
  EC50: 3.33 µM
[2]
  growth inhibition (GI): Non-toxic

## O=C(N/N=C/c1ccc[nH]1)C1CC1c1ccccc1 (stereo not drawn)
[3]
  EC50: 12.9 µM
[2]
  growth inhibition (GI): Non-toxic

## O=C(COc1ccc2c(c1)OCO2)N/N=C/c1ccc[nH]1
[4]
  EC50: 21 µM
[3]
  EC50: 36.2 µM

## O=C(COc1c(Cl)cc(Cl)cc1Cl)N/N=C/c1ccc[nH]1
[5]
  solubility kinetic at 100 µM: 6.3 µM (≈ 2.18 µg/mL)
[6]
  remaining at 5 h: 49%
[4]
  EC50: 27.6 µM
[7]
  remaining at 48 h: 85%
[8]
  remaining at 48 h: 76%
[9]
  fraction unbound at 48 h: 0.012
[3]
  EC50: 1.16 µM

## CC(C)(C)c1ccc(C2CC2C(=O)N/N=C/c2ccc[nH]2)cc1 (stereo not drawn)
[4]
  EC50: 2.14 µM
[3]
  EC50: 0.79 µM

## O=C(CCc1ccc2c(c1)OCO2)N/N=C/c1ccc[nH]1
[3]
  EC50: 53.4 µM
[2]
  growth inhibition (GI): Non-toxic

## O=C(COc1ccccc1Cl)N/N=C/c1ccc[nH]1
[3]
  EC50: 33.5 µM
[2]
  growth inhibition (GI): Non-toxic

## CC(Oc1ccc(F)cc1Cl)C(=O)N/N=C/c1ccc[nH]1 (stereo not drawn)
[3]
  EC50: 35.4 µM
[2]
  growth inhibition (GI): Non-toxic

## Cc1ccc(/C=N/NC(=O)COc2ccc(Cl)cc2Cl)[nH]1
[4]
  EC50: 16.9 µM
[3]
  EC50: 14.3 µM

## Cn1cccc1/C=N/NC(=O)COc1ccc(Cl)cc1Cl
[1]
  growth inhibition (GI): inactive
[2]
  growth inhibition (GI): Non-toxic

## O=C(CSc1ccc(Cl)cc1Cl)N/N=C/c1ccc[nH]1
[4]
  EC50: 18 µM
[3]
  EC50: 2.3 µM

## CC(C)(C)c1ccc2c(c1)OC(C(=O)N/N=C/c1ccc[nH]1)CO2 (stereo not drawn)
[4]
  EC50: 15 µM
[3]
  EC50: 2.51 µM

## O=C(COc1ccc(Cl)cc1Cl)N/N=C/c1ccccc1
[1]
  growth inhibition (GI): inactive
[2]
  growth inhibition (GI): Non-toxic
